Among the data in patent US10654837B2, “Sulphamoylaryl derivatives and use thereof as medicaments for the treatment of liver fibrosis” (Janssen Pharmaceutica NV, priority 2017, dated 2020) are IC50 values, retold here.

In general, IC50 refers to the concentration needed to halve the response being measured.

In this assay the target is T1, 5HTR2B (Homo sapiens, UniProt P41595).
T1 construct: host or cells: human Maverick/293 cells
Kind of assay: 5HTR2B antagonist activity, calcium mobilization assay in human Maverick/293 cells (serotonin as agonist). It counts as cell-based. Particulars: intracellular calcium, emission 525 nm, read-out: Ca assay IC50. How it is done:
The 5HTR2B antagonist activity was measured using human Maverick/293 cells in a calcium mobilization assay. The measurement starting with plating human Maverick/293 cells (log phase) onto 96-well black and incubate at 37° C. overnight, Followed by starving cells for 2 h by changing complete medium to DMEM without FBS, removing the medium from the 96-well plate. Loading staining calcium buffer into each well and incubated the plate at 37° C. for 50 min. After removal of staining calcium buffer, diluted antagonist were added into the well, incubate 15 to 30 minutes. Dispense serotonin as the 5HTR2B agonists into each well. Intracellular calcium concentration is recorded for 80 seconds by monitoring an emission at a wavelength of 525 nm with an excitation wavelength of 485 nm. Inhibition efficiency of the cell line was determined following the equation: % Inhibition=100%−(D−B)/(S−B)*100%. (S: The peak value in the presence of agonist serotonin; D: The peak value in the presence of different dilution compound or serotonin; B: The peak value in the presence of calcium HBSS buffer only). […] A dose response curve was fitted using nonlinear regression model with a sigmoidal dose response. The IC50 was automatically produced by GraphPad Prism 5.0.
In general terms: Calcium assays in cells follow changes in intracellular calcium, usually with a dye or a luminescent sensor.

T1 sequence (P41595 whole entry): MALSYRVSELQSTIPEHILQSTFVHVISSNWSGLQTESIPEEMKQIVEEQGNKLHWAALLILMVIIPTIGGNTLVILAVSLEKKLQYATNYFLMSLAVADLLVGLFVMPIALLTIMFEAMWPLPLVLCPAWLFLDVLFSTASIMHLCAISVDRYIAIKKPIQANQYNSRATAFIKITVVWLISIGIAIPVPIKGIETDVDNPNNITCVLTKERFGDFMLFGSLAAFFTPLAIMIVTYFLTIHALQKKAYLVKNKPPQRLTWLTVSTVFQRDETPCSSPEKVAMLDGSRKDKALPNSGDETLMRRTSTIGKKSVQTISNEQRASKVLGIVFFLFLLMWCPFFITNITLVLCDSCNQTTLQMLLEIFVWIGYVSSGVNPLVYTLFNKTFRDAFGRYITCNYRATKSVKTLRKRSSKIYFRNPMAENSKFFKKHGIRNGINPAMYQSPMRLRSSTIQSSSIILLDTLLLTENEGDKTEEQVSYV

For the compound `COc1ccc(S(=O)(=O)N[C@H]2CCOC2)cc1C(=O)Nc1nccs1` [Compound 64, (S)-2-Methoxy-5-(N-(tetrahydrofuran-3-yl)sulfamoyl)-N-(thiazol-2-yl) benzamide], the IC50 amounted to 65 nM.
The value for `COc1ccc(S(=O)(=O)NCC(O)C(F)(F)F)cc1C(=O)Nc1ccc(F)cc1` (single isomer, unassigned) [Compound 44a, (S*)—N-(4-Fluorophenyl)-2-methoxy-5-(N-(3,3,3-trifluoro-2-hydroxypropyl)sulfamoyl)benzamide] was 2.4 nM.
With `COc1ccc(S(=O)(=O)N[C@H]2CCOC2)cc1C(=O)Nc1cccc(C(F)(F)F)c1` [Compound 109, (S)-2-Methoxy-5-(N-(tetrahydrofuran-3-yl)sulfamoyl)-N-(3-(trifluoromethyl)phenyl)benzamide] the figure was 231 nM; with `COc1ccc(S(=O)(=O)NC2CCC2)cc1C(=O)Nc1ccc(F)c(C)c1` [Compound 63, 5-(N-Cyclobutylsulfamoyl)-N-(4-fluoro-3-methylphenyl)-2-methoxybenzamide], 1.3 nM.
For the compound `COc1ccc(S(=O)(=O)N[C@H]2C[C@H](O)C2)cc1C(=O)Nc1cc(C)ccc1Cl` [Compound 137a, N-(2-chloro-5-methylphenyl)-5-(N-((trans)-3-hydroxycyclobutyl)sulfamoyl)-2-methoxybenzamide], the IC50 worked out at 17.1 nM.
The value for `COc1ccc(S(=O)(=O)N[C@H]2CCOC2)cc1C(=O)Nc1ccccc1F` [Compound 99, (S)—N-(2-Fluorophenyl)-2-methoxy-5-(N-(tetrahydrofuran-3-yl)sulfamoyl) benzamide] was 1.6 nM; that for `COc1ccc(S(=O)(=O)N[C@H](C)C(N)=O)cc1C(=O)Nc1ccc(F)c(C(F)F)c1` [Compound 34b, (R)-5-(N-(1-Amino-1-oxopropan-2-yl)sulfamoyl)-N-(3-(difluoromethyl)-4-fluorophenyl)-2-methoxybenzamide] was 167 nM; that for `COc1ccc(S(=O)(=O)N[C@H]2CCOC2)cc1C(=O)Nc1ncc(F)cc1Cl` [Compound 119] was 1.4 nM.
The value for `COc1ccc(S(=O)(=O)N[C@H]2CCOC2)cc1C(=O)Nc1ncccc1C` [Compound 133, (S)-2-Methoxy-N-(3-methylpyridin-2-yl)-5-(N-(tetrahydrofuran-3-yl)sulfamoyl) benzamide] was 405 nM; that for `COc1ccc(S(=O)(=O)N[C@H]2CCOC2)cc1C(=O)Nc1ccc(C#N)cc1F` [Compound 73, (S)—N-(4-Cyano-2-fluorophenyl)-2-methoxy-5-(N-(tetrahydrofuran-3-yl)sulfamoyl)benzamide] was 5.5 nM.
`COc1ccc(S(=O)(=O)N[C@H]2CCOC2)cc1C(=O)Nc1cc(F)cc(Cl)c1` [Compound 68, (S)—N-(3-Chloro-5-fluorophenyl)-2-methoxy-5-(N-(tetrahydrofuran-3-yl)sulfamoyl)benzamide]: the IC50 is 2.9 nM.
The value for `COc1ccc(S(=O)(=O)N[C@H]2CCOC2)cc1C(=O)Nc1cccc(C#N)c1F` [Compound 92, (S)—N-(3-Cyano-2-fluorophenyl)-2-methoxy-5-(N-(tetrahydrofuran-3-yl)sulfamoyl)benzamide] was 136 nM.
With `COc1ccc(S(=O)(=O)N[C@@H](C)C(N)=O)cc1C(=O)Nc1ccc(F)c(C(F)F)c1` [Compound 34a, (S)-5-(N-(1-Amino-1-oxopropan-2-yl)sulfamoyl)-N-(3-(difluoromethyl)-4-fluorophenyl)-2-methoxybenzamide] the figure was 1.4 nM; with `COc1ccc(S(=O)(=O)N[C@H]2CCOC2)cc1C(=O)Nc1ccc(F)cc1C` [Compound 131, (S)—N-(4-Fluoro-2-methylphenyl)-2-methoxy-5-(N-(tetrahydrofuran-3-yl)sulfamoyl)benzamide], 1.3 nM; with `COc1ccc(S(=O)(=O)NC2CC2)cc1C(=O)Nc1ccc(F)cc1` [Compound 48, 5-(N-Cyclopropylsulfamoyl)-N-(4-fluorophenyl)-2-methoxybenzamide], 2.7 nM.
The value for `COc1ccc(S(=O)(=O)N[C@H]2CCOC2)cc1C(=O)Nc1cccc(Br)c1` [Compound 124, (S)—N-(3-Bromophenyl)-2-methoxy-5-(N-(tetrahydrofuran-3-yl)sulfamoyl) benzamide] was 6.3 nM; that for `COc1ccc(S(=O)(=O)N[C@H]2C[C@@H](C)C2)cc1C(=O)Nc1ccc(F)c(C)c1` [Compound 7a, N-(4-Fluoro-3-methylphenyl)-2-methoxy-5-(N-((cis)-3-methylcyclobutyl)sulfamoyl)benzamide] was 3.8 nM; that for `COc1ccc(S(=O)(=O)N[C@H]2CCOC2)cc1C(=O)Nc1c(F)cc(C#N)cc1F` [Compound 80, (S)—N-(4-cyano-2,6-difluorophenyl)-2-methoxy-5-(N-(tetrahydrofuran-3-yl)sulfamoyl)benzamide] was 574 nM.
For `COc1ccc(S(=O)(=O)NC2CCCC[C@H]2O)cc1C(=O)Nc1ccc(F)c(C)n1` (stereo in doubt) [Compound 28b, N-(5-Fluoro-6-methylpyridin-2-yl)-5-(N-((trans)-2-hydroxycyclohexyl)sulfamoyl)-2-methoxybenzamide], the IC50 was determined as 119 nM.
For the compound `COc1ccc(S(=O)(=O)NC2CCCOC2)cc1C(=O)Nc1ccc(F)c(C)n1` (single isomer, unassigned) [Compound 16b, (R*)—N-(5-Fluoro-6-methylpyridin-2-yl)-2-methoxy-5-(N-(tetrahydro-2H-pyran-3-yl)sulfamoyl)benzamide], the IC50 is 9.1 nM.
With `COc1ccc(S(=O)(=O)N[C@H]2CCOC2)cc1C(=O)Nc1nc(C)c(F)c(Cl)n1` [Compound 171, (S)—N-(4-chloro-5-fluoro-6-methylpyrimidin-2-yl)-2-methoxy-5-(N-(tetrahydrofuran-3-yl)sulfamoyl)benzamide], the IC50 stood at 106 nM.
With `COc1ccc(S(=O)(=O)N[C@H]2CCOC2)cc1C(=O)Nc1ccc(F)cc1` [Compound 122, (S)—N-(4-Fluorophenyl)-2-methoxy-5-(N-(tetrahydrofuran-3-yl)sulfamoyl) benzamide] the figure was 0.6 nM.
With `COc1ccc(S(=O)(=O)N[C@H]2CCOC2)cc1C(=O)Nc1ncc(F)cc1C` [Compound 132, (S)—N-(5-fluoro-3-methylpyridin-2-yl)-2-methoxy-5-(N-(tetrahydrofuran-3-yl)sulfamoyl)benzamide] the figure was 163 nM; with `COc1ccc(S(=O)(=O)N[C@H]2CCOC2)cc1C(=O)Nc1ccc(F)c(Cl)c1` [Compound 112, (S)—N-(3-Chloro-4-fluorophenyl)-2-methoxy-5-(N-(tetrahydrofuran-3-yl)sulfamoyl)benzamide], 2.9 nM.
With `COc1ccc(S(=O)(=O)NC2CCC[C@@H]2O)cc1C(=O)Nc1ccccc1Cl` (stereo partly drawn) [Compound 61b, N-(2-Chlorophenyl)-5-(N-((trans)-2-hydroxycyclopentyl)sulfamoyl)-2-methoxy benzamide] the figure was 0.2 nM; with `COc1ccc(S(=O)(=O)N[C@H]2C[C@@H](O)C2)cc1C(=O)Nc1c(C)cccc1Cl` [Compound 138b, N-(2-Chloro-6-methylphenyl)-5-(N-((cis)-3-hydroxycyclobutyl)sulfamoyl)-2-methoxybenzamide], 329 nM.
As to `COc1ccc(S(=O)(=O)N[C@H](C)CC#N)cc1C(=O)Nc1ccccc1Cl` (single isomer, unassigned) [Compound 60b, (R*)—N-(2-chlorophenyl)-5-(N-(1-cyanopropan-2-yl)sulfamoyl)-2-methoxy benzamide], the IC50 is 0.4 nM.
As for `COc1ccc(S(=O)(=O)NC(C)C)cc1C(=O)Nc1ccc(F)c(C)c1` [Compound 8, N-(4-Fluoro-3-methylphenyl)-5-(N-isopropylsulfamoyl)-2-methoxybenzamide], the IC50 was 2.5 nM.
As to `COc1ccc(S(=O)(=O)N[C@H]2CCOC2)cc1C(=O)Nc1ccn(C)n1` [Compound 79, (S)-2-Methoxy-N-(1-methyl-1H-pyrazol-3-yl)-5-(N-(tetrahydrofuran-3-yl)sulfamoyl)benzamide], the IC50 amounted to 98 nM.
On to `COc1ccc(S(=O)(=O)N[C@H]2CCOC2)cc1C(=O)Nc1ccccc1C(F)(F)F` [Compound 149, (S)-2-Methoxy-5-(N-(tetrahydrofuran-3-yl)sulfamoyl)-N-(2-(trifluoromethyl)phenyl)benzamide], for which the IC50 is 8.4 nM.
The value for `COc1ccc(NS(=O)(=O)[C@H]2CCOC2)cc1C(=O)Nc1ccc(F)c(C)c1` (single isomer, unassigned) [Compound 202a, (S*)N-4-fluoro-3-methylphenyl)-2-methoxy-5-(tetrahydrofuran-3-sulfonamido)benzamide] was 1 nM.
With `COc1ccc(S(=O)(=O)N[C@@H]2CCNC2)cc1C(=O)Nc1ccc(F)cc1F` [Compound 188, (R)—N-(2,4-difluorophenyl)-2-methoxy-5-(N-(pyrrolidin-3-yl)sulfamoyl) benzamide], the IC50 was 1.6 nM.
With `COc1ccc(S(=O)(=O)N[C@H]2CCOC2)cc1C(=O)Nc1cc(F)c(F)cc1F` [Compound 74, (S)-2-Methoxy-5-(N-(tetrahydrofuran-3-yl)sulfamoyl)-N-(2,4,5-trifluorophenyl) benzamide] the figure was 0.8 nM; with `COc1ccc(S(=O)(=O)NC2CNC2)cc1C(=O)Nc1ccc(F)c(C)n1` [Compound 169, 5-(N-(Azetidin-3-yl)sulfamoyl)-N-(5-fluoro-6-methylpyridin-2-yl)-2-Methoxy benzamide], 65 nM.
